How the values were obtained:
[1] = tested on: serum calcium concentration; conditions: standard used in the rat serum calcium assay; cited from earlier work
[2] = tested on: serum calcium concentration; test: Biological assay of calcitonin analogs in vivo: reduction of serum calcium concentration, 2×2 parallel line assay; conditions: rats, subcutaneous injection, blood withdrawn 1 hour later
Description: Biological Assay Of Calcitonin Analogs In Vivo
The biological potency of [Di-Ala^1,7 ]salmon calcitonin was determined by comparing the reduction of serum calcium concentration which followed administration by graded doses of [Di-Ala^1,7 ]SCT and synthetic salmon calcitonin standard. Rats were divided into four groups of seven animals, and each group was assigned at random to a dose of standard or test solution. Low and high doses were chosen from the linear portion of the dose-responsive curve. For the salmon calcitonin standard, the values were 0.7 and 2.1 mcg. peptide/100 g. body weight (BW). This dose approximates 3 and 9 MU/100 g. BW. Peptides were given by subcutaneous injection (0.2 ml/100 g. BW) and blood was withdrawn 1 hour later for serum calcium determination. Sera are processed and analyzed within two hours of collection. […]. Results were analyzed by a 2×2 parallel line assay [Gaddum, J. H., J. Pharm. Pharmacol., 6, 345 (1953)]. The standard salmon calcitonin used was independently determined to contain greater than 4,000 IU/mg. [Di-Ala^1,7 ]SCT assayed at 5550 IU/mg.

| Substance | potency of the standard salmon calcitonin, independently determined [1] | biological potency (reduction of serum calcium concentration vs synthetic salmon calcitonin standard) [2] |
| --- | --- | --- |
| Salmon calcitonin [standard salmon calcitonin] | greater than 4,000 IU/mg |  |
| [1,7-Di-Alanine)]salmon calcitonin [[Di-Ala^1,7]SCT] |  | 5550 IU/mg |

From US4622386A, “[1,7-di-alanine]calcitonin” (Armour Pharmaceutical Company, priority 1985, dated 1986)
